{"source": "paper PMC10850145", "about": "“Hormonal steroids induce multidrug resistance and stress response genes in Neisseria gonorrhoeae by binding to MtrR” (Nature Communications, 2024)", "key": {"FA19 mtrD::kan (KH14)": {"test_system": "FA19 mtrD::kan (KH14)", "design": "method as in PMID 31744915", "details": "cited from earlier work"}, "lptA-lacZ expression": {"test_system": "lptA-lacZ expression", "experiment": "β-galactosidase assay, lptA-lacZ fusion (negative control gene)", "details": "WT-lptA-lacZ"}, "[1]": {"test_system": "mutant strain JF1 (ΔmtrR)", "experiment": "Antimicrobial susceptibility spot assay with hormone plus antibiotic, JF1 (ΔmtrR)", "format": "cell-based, Neisseria gonorrhoeae", "details": "derivative lacking MtrR (JF1), azithromycin", "description": "Fig. 5 Effect of steroidal hormones on gonococcal antimicrobial susceptibility.\nTo determine the minimal inhibitory concentrations (MICs) by the steroidal hormones and their effect on antimicrobial susceptibility, 5 x 10^5 CFU and 1:5 serial dilutions of gonococcal strains were spotted on GC agar plates containing different concentrations of antibiotics and/or hormones as indicated. Antimicrobial susceptibility was assessed after 24 h incubation."}, "MtrR W136A": {"biological_target": "T1, MtrR W136A (Neisseria gonorrhoeae, UniProt P39897, W136A)", "T1 construct": "Hexa-histidine tag with TEV protease cleavage site (N, cleaved yes); made in house; host or cells: E. coli Rosetta Gami B(DE3) pLysS", "T1 sequence (P39897 whole entry W136A)": "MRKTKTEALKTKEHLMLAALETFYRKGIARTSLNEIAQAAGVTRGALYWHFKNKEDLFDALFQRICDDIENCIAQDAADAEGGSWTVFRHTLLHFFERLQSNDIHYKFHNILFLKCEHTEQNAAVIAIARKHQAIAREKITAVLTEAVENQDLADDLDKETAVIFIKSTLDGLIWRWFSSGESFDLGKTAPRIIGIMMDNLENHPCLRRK", "experiment": "biochemical", "format": "binding"}}}
{"compound": "CC(=O)[C@H]1CC[C@H]2[C@@H]3CCC4=CC(=O)CC[C@]4(C)[C@H]3CC[C@]12C", "note": "[Progesterone, progesterone]", "values": [{"measurement": "change of MIC by mutations of the mtrD gene", "setting": "FA19 mtrD::kan (KH14)", "value": "significant decrease"}, {"measurement": "Mean Miller units", "setting": "lptA-lacZ expression; 0.1 µM hormone", "value": 10, "unit": "Miller units"}, {"measurement": "Mean Miller units", "setting": "lptA-lacZ expression; 1 µM hormone", "value": 13, "unit": "Miller units"}, {"measurement": "Mean Miller units", "setting": "lptA-lacZ expression; 10 µM hormone", "value": 13, "unit": "Miller units"}, {"measurement": "Mean Miller units", "setting": "lptA-lacZ expression; 50 µM hormone", "value": 10, "unit": "Miller units"}, {"measurement": "Mean Miller units", "setting": "lptA-lacZ expression; 100 µM hormone", "value": 12, "unit": "Miller units"}, {"measurement": "change in antibiotic resistance in presence of sub-lethal hormone", "setting": "[1]", "value": "did not show change"}]}
{"compound": "C[C@]12CC[C@H]3[C@@H](CCC4=CC(=O)CC[C@@]43C)[C@@H]1CC[C@@H]2O", "note": "[Testosterone, testosterone]", "values": [{"measurement": "Kd", "setting": "MtrR W136A", "value": "5.79 ± 1.4", "unit": "µM"}]}
{"compound": "C[C@]12CC[C@@H]3c4ccc(O)cc4CC[C@H]3[C@@H]1CC[C@@H]2O", "note": "[β-Estradiol, β-estradiol]", "values": [{"measurement": "Kd", "setting": "MtrR W136A", "value": "1.06 ± 0.04", "unit": "µM"}, {"measurement": "Mean Miller units", "setting": "lptA-lacZ expression; 0.1 µM hormone", "value": 4.54, "unit": "Miller units"}, {"measurement": "Mean Miller units", "setting": "lptA-lacZ expression; 1 µM hormone", "value": 7, "unit": "Miller units"}, {"measurement": "Mean Miller units", "setting": "lptA-lacZ expression; 10 µM hormone", "value": 4.45, "unit": "Miller units"}, {"measurement": "Mean Miller units", "setting": "lptA-lacZ expression; 50 µM hormone", "value": 6.62, "unit": "Miller units"}, {"measurement": "Mean Miller units", "setting": "lptA-lacZ expression; 100 µM hormone", "value": 6, "unit": "Miller units"}, {"measurement": "change in antibiotic resistance in presence of sub-lethal hormone", "setting": "[1]", "value": "did not show change"}]}
